Values of other authors as cited in patent US11938222B2, “Pregabalin sustained release composition and method for preparing the same” (priority 2018, dated 2024).

Details: gastrointestinal tract, humans

## CC(C)C[C@H](CN)CC(=O)O [pregabalin, (S)-3-aminomethyl-5-methylhexanoic acid]
  average absorption window: ≤ 6 h
